In patent US20210121426A1, “BLOOD PURIFICATION BY ALKALINIZING AGENT” (TOHOKU UNIVERSITY, priority 2017, published 2021):
Marks after values point to notes of the source that are not given here.

Legend:
p-cresyl sulfate = assay: Human clinical trial in CKD patients: p-cresyl sulfate in plasma and early morning urine (LC-MS/MS); type: in vivo; set-up: key to Influence on concentration of PCS / Influence on PCS U/P ratio: Excellent effects: ◯; Poor effects: X; No significant difference: —; (◯): whether or not there is an effect of promoting excretion of indoxyl sulfate into the urine cannot be determined
Protocol: (§1) 1. […] Patients were assigned to each group so that age, sex, presence of diabetes, and eGFR were not biased. Each group was treated according to the “CKD medical care guide-summary of treatment” (hereinafter referred to as standard treatment).
(§2) An alkalinizing agent was not administered to the control group. […] A pH of early morning urine was controlled over time so that the dosage could be increased up to 6 tablets, 3 times a day (morning, noon, evening) as needed according to the discretion of the physician in cases where a pH of early morning urine was less than pH 6.5. To the group B, 3 tablets a day in which each tablet contained 500 mg of sodium bicarbonate were orally administered 3 times a day (morning, noon, evening) for 24 weeks. A pH of early morning urine was controlled over time so that the dosage could be increased up to 6 tablets, 3 times a day (morning, noon, evening) as needed according to the discretion of the physician in cases where a pH of early morning urine was less than pH 6.5.
Early morning urine and blood were collected before the start of administration, and 6 weeks, 12 weeks, and 24 weeks after the start of administration, and each specimen was stored at −80° C. Methods used in the present field for indoxyl sulfate, p-cresyl sulfate, phenylacetyl-L-glutamine, hippuric acid, and argininosuccinic acid in urine and blood (Sato, E., et. al., Metabolic alteration by indoxyl sulfate in skeletal muscle induce uremic sarcopenia in chronic kidney disease., Sci Rep. 2016 Nov. 10; 6:36618. doi: 10.1038/srep36618, and the like) were referred to, and quantitative analysis was performed using the following liquid chromatography triple quadrupole mass spectrometer (LC-MS/MS).
For LC, NANOSPACE SI-2 (manufactured by Shiseido) was used, and […] MGM was selected as the analytical column.
For MS, TSQ Quantiva (manufactured by Thermo Fisher Scientific Co., Ltd.) was used, and five compounds were ionized in the negative mode and detected using the Selected Reaction Monitoring method. The quantitative value was calculated using a calibration curve prepared with a standard solution of each compound.
For statistical analysis, the Mann-Whitney test was used for comparison between groups, and the Wilcoxon test was used for comparison of changes over time. The Pearson test was used for correlation.
Then, the average value and SD of each group were calculated for (i) to (ix) above. For each of (iv) to (ix) above, the average value and SD of each group were calculated for all data of 6 weeks, 12 weeks, and 24 weeks after the start of administration in each group.

indoxyl sulfate = assay: Urine indoxyl sulfate (IS) corrected by urine osmotic pressure; type: in vivo, human
From the text: Medical Examination, Vol. 44, No. 1, 1995, pages 79-83 by Tetsuo Aoki et al. was referred to. In addition, a urine osmotic pressure 770 mOsm/kg was converted into a reference value.
Osmotic pressure correction value (unit/500 mOsm·P)=actual measurement value×500/osmotic pressure value

[1] = Human clinical trial: urinary specific gravity of early morning urine (urine hydrometer); type: in vivo
Protocol: as §1, §2
In addition, amounts of change in each urinary specific gravity after 6, 12, and 24 weeks after the start of the test are respectively shown as a % relative value with respect to each urinary specific gravity before the start of the test, and a difference from urinary specific gravity before the start of the teste in Tables 11-0-2 and 11-0-3. The urinary specific gravity was measured using a urine hydrometer (PAL-09S, Atago Co., Ltd., Tokyo, Japan).

[2] = 0 W, before the start of administration
[3] = 6-24 W, all data of 6, 12 and 24 weeks
[4] = compared to before administration

Q: With O=C([O-])O.[Na+] [Bicarbonate, sodium bicarbonate] as the compound, how does the “Plasma p-Cresyl Sulfate” value (p-cresyl sulfate; [2]) read?
A: 5402 ± 5209 ng/mL

Q: And the “Urine p-Cresyl Sulfate (early morning urine)” value (p-cresyl sulfate; [2])?
A: 66164 ± 97704 ng/mL

Q: What about the “p-Cresyl Sulfate-Urine/Plasma ratio” value (p-cresyl sulfate; [2]) of the same compound?
A: 15.6 ± 11.1

Q: And the “Plasma p-Cresyl Sulfate” value (p-cresyl sulfate; [3])?
A: 4187 ± 4354 ng/mL

Q: What about the “Plasma p-Cresyl Sulfate, change from week 0” value (p-cresyl sulfate; [3]) of the same compound?
A: -1038 ± 2773 ng/mL

Q: And the “Urine p-Cresyl Sulfate (early morning urine)” value (p-cresyl sulfate; [3])?
A: 52501 ± 73583 ng/mL

Q: And the “Urine p-Cresyl Sulfate, change from week 0” value (p-cresyl sulfate; [3])?
A: -13663 ± 74566 ng/mL

Q: What about the “p-Cresyl Sulfate-Urine/Plasma ratio” value (p-cresyl sulfate; [3]) of the same compound?
A: 16.8 ± 13.9 ^d

Q: And the “p-Cresyl Sulfate-Urine/Plasma ratio, change from week 0” value (p-cresyl sulfate; [3])?
A: 1.20 ± 11.45

Q: What about the “Plasma p-Cresyl Sulfate” value (p-cresyl sulfate; 6 W) of the same compound?
A: 4506 ± 5300 ng/mL

Q: What about the “Plasma p-Cresyl Sulfate, change from week 0” value (p-cresyl sulfate; 6 W) of the same compound?
A: -895.9 ± 2153 ng/mL

Q: And the “Urine p-Cresyl Sulfate (early morning urine)” value (p-cresyl sulfate; 6 W)?
A: 67744 ± 105548 ng/mL

Q: What about the “Urine p-Cresyl Sulfate, change from week 0” value (p-cresyl sulfate; 6 W) of the same compound?
A: 1580 ± 51468 ng/mL

Q: And the “p-Cresyl Sulfate-Urine/Plasma ratio” value (p-cresyl sulfate; 6 W)?
A: 17.0 ± 12.0

Q: And the “p-Cresyl Sulfate-Urine/Plasma ratio, change from week 0” value (p-cresyl sulfate; 6 W)?
A: 1.39 ± 8.25

Q: And the “Plasma p-Cresyl Sulfate” value (p-cresyl sulfate; 12 W)?
A: 3771 ± 4139 ng/mL

Q: What about the “Plasma p-Cresyl Sulfate, change from week 0” value (p-cresyl sulfate; 12 W) of the same compound?
A: -1103 ± 2478 ng/mL

Q: And the “Urine p-Cresyl Sulfate (early morning urine)” value (p-cresyl sulfate; 12 W)?
A: 37730 ± 48411 ng/mL

Q: What about the “Urine p-Cresyl Sulfate, change from week 0” value (p-cresyl sulfate; 12 W) of the same compound?
A: -28434 ± 72253 ng/mL

Q: And the “p-Cresyl Sulfate-Urine/Plasma ratio” value (p-cresyl sulfate; 12 W)?
A: 16.5 ± 17.9

Q: What about the “p-Cresyl Sulfate-Urine/Plasma ratio, change from week 0” value (p-cresyl sulfate; 12 W) of the same compound?
A: 0.91 ± 15.68

Q: What about the “Plasma p-Cresyl Sulfate” value (p-cresyl sulfate; 24 W) of the same compound?
A: 4284 ± 3682 ng/mL

Q: And the “Plasma p-Cresyl Sulfate, change from week 0” value (p-cresyl sulfate; 24 W)?
A: -1119 ± 3631 ng/mL

Q: And the “Urine p-Cresyl Sulfate (early morning urine)” value (p-cresyl sulfate; 24 W)?
A: 52029 ± 57779 ng/mL

Q: What about the “Urine p-Cresyl Sulfate, change from week 0” value (p-cresyl sulfate; 24 W) of the same compound?
A: -14163 ± 95244 ng/mL

Q: What about the “p-Cresyl Sulfate-Urine/Plasma ratio” value (p-cresyl sulfate; 24 W) of the same compound?
A: 17.0 ± 11.8 ^c

Q: And the “p-Cresyl Sulfate-Urine/Plasma ratio, change from week 0” value (p-cresyl sulfate; 24 W)?
A: 1.31 ± 9.81

Q: What about the “Influence on concentration of PCS” value (p-cresyl sulfate; Plasma, comparison with Cont) of the same compound?
A: —

Q: What about the “Influence on concentration of PCS” value (p-cresyl sulfate; Plasma, comparison with reference drug) of the same compound?
A: ◯

Q: And the “Influence on PCS U/P ratio” value (p-cresyl sulfate; comparison with Cont)?
A: ◯

Q: What about the “Influence on PCS U/P ratio” value (p-cresyl sulfate; comparison with reference drug) of the same compound?
A: —

Q: What about the “Influence on concentration of PCS” value (p-cresyl sulfate; Urine, comparison with Cont) of the same compound?
A: —

Q: And the “Influence on concentration of PCS” value (p-cresyl sulfate; Urine, comparison with reference drug)?
A: X

Q: What about the “concentration of p-cresyl sulfate in plasma” value (p-cresyl sulfate; [4]) of the same compound?
A: decreased

Q: What about the “concentration of p-cresyl sulfate in urine” value (p-cresyl sulfate; [4]) of the same compound?
A: such an effect was not recognized

Q: What about the “Urine IS, osmotic pressure corrected” value (indoxyl sulfate; 0 W) of the same compound?
A: 87.9 ± 40.0 μg · mL^−1/770 mOsm · P

Q: What about the “Urine IS, osmotic pressure corrected” value (indoxyl sulfate; 6-24 W, all data) of the same compound?
A: 77.0 ± 42.5 μg · mL^−1/770 mOsm · P

Q: And the “Urine IS, osmotic pressure corrected, % Relative value vs week 0” value (shortened to “Urine IS … % Relative value vs week 0”) (indoxyl sulfate; 6-24 W, all data)?
A: 93 ± 49%

Q: What about the “Urine IS, osmotic pressure corrected” value (indoxyl sulfate; 6 W) of the same compound?
A: 82.9 ± 44.6 μg · mL^−1/770 mOsm · P

Q: What about the “Urine IS … % Relative value vs week 0” value (indoxyl sulfate; 6 W) of the same compound?
A: 98 ± 30%

Q: What about the “Urine IS … % Relative value vs week 0” value (indoxyl sulfate; 12 W) of the same compound?
A: 77 ± 39%

Q: And the “Urine IS, osmotic pressure corrected” value (indoxyl sulfate; 24 W)?
A: 84.4 ± 48.4 μg · mL^−1/770 mOsm · P

Q: What about the “Urine IS … % Relative value vs week 0” value (indoxyl sulfate; 24 W) of the same compound?
A: 104 ± 68%

Q: And the “Urine Specific Gravity” value ([1]; 0 W, before the start of the test)?
A: 1.014 ± 0.007

Q: What about the “Urine Specific Gravity” value ([1]; 6-24 W, all data) of the same compound?
A: 1.014 ± 0.006

Q: What about the “Urine Specific Gravity (% Relative value vs week 0)” value ([1]; 6-24 W, all data) of the same compound?
A: 100.00 ± 0.67%

Q: And the “Urine Specific Gravity, difference vs week 0” value ([1]; 6-24 W, all data)?
A: 0.0002 ± 0.0058^b

Q: And the “Urine Specific Gravity” value ([1]; 6 W)?
A: 1.014 ± 0.006

Q: And the “Urine Specific Gravity (% Relative value vs week 0)” value ([1]; 6 W)?
A: 100.02 ± 0.53%

Q: And the “Urine Specific Gravity, difference vs week 0” value ([1]; 6 W)?
A: 0.0002 ± 0.0054

Q: What about the “Urine Specific Gravity” value ([1]; 12 W) of the same compound?
A: 1.013 ± 0.005

Q: And the “Urine Specific Gravity (% Relative value vs week 0)” value ([1]; 12 W)?
A: 99.89 ± 0.58^e %

Q: What about the “Urine Specific Gravity, difference vs week 0” value ([1]; 12 W) of the same compound?
A: −0.0012 ± 0.0058^e

Q: And the “Urine Specific Gravity” value ([1]; 24 W)?
A: 1.016 ± 0.007

Q: And the “Urine Specific Gravity (% Relative value vs week 0)” value ([1]; 24 W)?
A: 100.17 ± 0.61%

Q: What about the “Urine Specific Gravity, difference vs week 0” value ([1]; 24 W) of the same compound?
A: 0.0017 ± 0.0062

Q: What about the “urinary specific gravity value” ([1]; over 6, 12 and 24 weeks, compared with the control group) of the same compound?
A: maintained or increased
